In article PMC10775801 (Drug Design, Development and Therapy, 2024):
Read-outs that look alike come from different tables or passages of the source.

What was measured:
[1] = type: in vivo, Sprague-Dawley rats; conditions: rat plasma
[2] = SD rats, oral 15 mg/kg; cited from earlier work
in vivo = assay: in vivo; parameters: species or system Sprague-Dawley rats; conditions: rat
[3] = healthy volunteers, cited from earlier work
[4] = type: in vitro ADME, rat; conditions: room temperature (25 °C for 24 h), sampler 4 °C for 24 h, three freeze-thaw cycles (−20 °C to 25 °C), −80 °C for 14 days
[5] = mice, rats, and dogs; ref a previous article; cited from earlier work
[6] = oral 30 mg/kg, 4 h after administration

- presence in plasma after intravenous administration ([1]; 10 h after intravenous administration): disappeared completely from the plasma
- plasma concentration at 24 h ([1]; 24h after single oral administration): very low plasma concentration
- concentration at 2 h (in vivo; male, Sprague-Dawley, in vivo, po, 30 mg/kg): 5050 ± 676 ng/g
- presence in testis (in vivo; oral 30 mg/kg): not found
- highest concentration in heart (in vivo; [6]): 70.49 ± 32.73 ng/g
- highest concentration in kidney (in vivo; [6]): 1787.02 ± 364.44 ng/g
- highest concentration in lung (in vivo; [6]): 3897.76 ± 217.27 ng/g
- highest concentration in pancreas (in vivo; [6]): 648.72 ± 305.97 ng/g
- highest concentration in spleen (in vivo; oral 30 mg/kg, 8 h after administration): 3891.80 ± 699.19 ng/g
- detectability in the organs (except intestine) at 24 hours (in vivo; oral 30 mg/kg, 24 hours after administration): still detectable
- stability in plasma samples and homogenate [4]: stable
Compound: C=C(F)C(=O)N1CCN(c2nc(OC[C@@H]3CCCN3C)nc3c2CCN(c2cccc4cccc(Cl)c24)C3)C[C@@H]1CC#N [Adagrasib]
- Cmax [2]: 122.3 ng/mL
- t1/2 [2]: 10.13 h
- tmax [2]: 6 h
- tmax ([3]; multiple-dose administration): 2.96 h
- tmax ([3]; recommended dose of 600 mg): 4.17 h
- tmax [5]: 4 to 6 h
